Columns and labels:
JIMT-1 = assay: In vitro growth inhibition of JIMT-1 cells; format: cell-based; conditions: Homo sapiens, FGFR1 amp, HER2 amp, PI3KCA C420R
Procedure: (§1) Adherent cells were digested with 0.25% trypsin-EDTA (Gibco). Suspension culture cells were collected by centrifugation (1700 rpm, 3 minutes). The supernatant was discarded and the cells were counted. According to each cell growth cycle, different concentrations of cells were prepared (5˜10×10^4 cells per ml), and inoculated to 96-well plates (Corning), with 100 μl per well, and incubated overnight at 37° C., 5% CO2. The next day, the test compound was added to the cultured cells (2 wells in parallel). The final concentration of the solvent was less than 1/1,000. The cells were further cultured for 3 to 5 days and assayed by MTT.
(§2) The MTT test reagent was a Dojindo CCK8 kit and the Microplate Reader was a THERMO […] FC instrument.
(§3) The adherent cells were taken out from the cell culture medium, and immediately added to a freshly prepared complete medium containing 10% CCK8 (5% FBS), 100 ul per hole. The suspended cells were directly added to a CCK8 reagent until reaching a final concentration of 10% and cultured for 1 to 4 hours. When a dark yellow color could be observed in the solvent control wells, the absorbance value at OD450 nm was measured and the cell growth rate was calculated according to the following formula: Cell Growth Rate (%)=100×(T−T0)/(C−T0)
(§4) T=optical density of drug-treated cell wells−optical density of blank control wells; T0=optical density of cell wells before drug treatment−optical density of blank control wells; C=optical density of solvent control wells−optical density of blank control wells. […] The experiments were repeated 1 to 3 times and a statistical analysis of data was conducted.
(§5) Mutations in the FGFR1-4 gene often occur in different types of cancer patients. In order to test the growth inhibition activity of the present compound against tumor cells expressing different FGFR variants, tumor cell lines expressing representative FGFR1-4 were selected for further determining the activity of compounds 25, 66, 38 and 95 of the present invention. BGJ398, a selective inhibitor of FGFR1-4, was used as the control compound. The specific test method is the same as test example 1.

DMS114 = assay: In vitro growth inhibition of DMS114 cells; format: cell-based; conditions: Homo sapiens, DMS-114, FGFR1 amp
Procedure: as §1, §2, §3, §4, §5

MFM-223 = assay: In vitro growth inhibition of MFM-223 cells; format: cell-based; conditions: Homo sapiens, PI3KCA H1047R, FGFR1 amp, FGFR2 amp
Procedure: as §1, §2, §3, §4, §5

Hep G2 = assay: In vitro growth inhibition of Hep G2 cells; format: cell-based; conditions: Homo sapiens, HepG2, FGFR3+++, FGFR4 +++
Procedure: as §1, §2, §3, §4, §5

MDA-MB-453 = assay: In vitro growth inhibition of MDA-MB-453 cells; format: cell-based; conditions: Homo sapiens, PI3KCA H1047R, FGFR4+++/Y367C
Procedure: as §1, §2, §3, §4, §5

RT112/84 = assay: In vitro growth inhibition of RT112/84 cells; format: cell-based; conditions: Homo sapiens, FGFR3-TACC3
Procedure: as §1, §2, §3, §4, §5

A375 = assay: In vitro growth inhibition of A375 cells; format: cell-based; conditions: Homo sapiens, A-375, BRAF V600E, FGFR2 mutant
Procedure: as §1, §2, §3, §4, §5

AGS = assay: In vitro growth inhibition of PI3KCA amplified/mutant tumor cells AGS; format: cell-based; conditions: Homo sapiens, PI3KCA E453K/E545A, KRAS G12D, read-out: IC50 growth inhibition
Procedure: as §1, with “Suspension” for “Adherent cells were digested with 0.25% trypsin-EDTA (Gibco). Suspension”
(§6) The adherent cells were taken out from the cell culture medium, and immediately added to a freshly prepared complete medium containing 10% CCK8 (5% FBS), 100 ul per hole. The suspended cells were directly added to a CCK8 reagent until reaching a final concentration of 10% and cultured for 1 to 4 hours.
as §4

KATO III (FGFR2 amp) = assay: In vitro growth inhibition of KATO III tumor cells (MTT/CCK8); format: cell-based, Human; conditions: Homo sapiens, KATO III; in vitro growth inhibition (or induction of apoptosis), cells cultured 3 to 5 days, MTT (CCK8); read-out: IC50 KATO III (FGFR2 amp)
A2780 = assay: In vitro growth inhibition of PI3KCA amplified/mutant tumor cells A2780; format: cell-based; conditions: Homo sapiens; A2780; PIK3CA E365K; read-out: IC50 growth inhibition
Procedure: as §1, with “Suspension” for “Adherent cells were digested with 0.25% trypsin-EDTA (Gibco). Suspension”
as §6, §4

MOLM-13 (FLT3-ITD) = assay: In vitro growth inhibition of MOLM-13 tumor cells (MTT/CCK8); format: cell-based, Human; conditions: Homo sapiens, MOLM-13; in vitro growth inhibition (or induction of apoptosis), cells cultured 3 to 5 days, MTT (CCK8); read-out: IC50 MOLM-13 (FLT3-ITD)
JHH-7 = assay: In vitro growth inhibition of JHH-7 cells; format: cell-based; conditions: Homo sapiens, JHH7, FGFR3+++, FGFR4 +++
Procedure: as §1, §2, §3, §4, §5

HCC1954 = assay: In vitro growth inhibition of PI3KCA amplified/mutant tumor cells HCC1954; format: cell-based; conditions: Homo sapiens; HCC1954; PI3KCA H1047R; HER2 amp; read-out: IC50 growth inhibition
Procedure: as §1, with “Suspension” for “Adherent cells were digested with 0.25% trypsin-EDTA (Gibco). Suspension”
as §6, §4

NCI-H460 = assay: In vitro growth inhibition of PI3KCA amplified/mutant tumor cells NCI-H460; format: cell-based; conditions: Homo sapiens; NCI-H460; PI3KCA E545K; KRAS Q61H; read-out: IC50 growth inhibition
Procedure: as §1, with “Suspension” for “Adherent cells were digested with 0.25% trypsin-EDTA (Gibco). Suspension”
as §6, §4

| IC50 (MDA-MB-453) [nM] | IC50 (A375) [nM] | IC50 (AGS) [nM] | IC50 (KATO III (FGFR2 amp)) [nM] | IC50 (A2780) [nM] | IC50 (MOLM-13 (FLT3-ITD)) [nM] | IC50 (HCC1954) [nM] | IC50 (NCI-H460) [nM] | SMILES | IC50 (JIMT-1) [nM] | IC50 (DMS114) [nM] | IC50 (MFM-223) [nM] | IC50 (Hep G2) [nM] | IC50 (RT112/84) [nM] | IC50 (JHH-7) [nM] |
| --- | --- | --- | --- | --- | --- | --- | --- | --- | --- | --- | --- | --- | --- | --- |
| 19.8 | 16.7 | 41.1 | 0.18 | 9.1 | 0.85 | 11.8 | 25.7 | COc1cc2nccc(Oc3ccc(NC(=O)Nc4cc(C(C)(C)C)nn4C)c(Cl)c3Cl)c2cc1C(N)=O [Compound 38, 4-{4-[3-(5-tert-butyl-2-methyl-2H-pyrazol-3-yl)-ureido]-2,3-dichloro-phenoxy}-7-methoxyquinolin-6-carboxamide] | 19.1 | 4.1 | 14.9 | 119 | 10.1 | 9.89 |
| 19.3 | 31.5 | 43.5 | 0.08 | 7.68 | 0.87 | 37.5 | 26.2 | COCCOc1cc2nccc(Oc3ccc(NC(=O)Nc4cc(C(C)(C)C)n[nH]4)c(Cl)c3)c2cc1NC(C)=O [Compound 66, N-[4-{4-[3-(5-tert-butyl-2H-pyrazol-3-yl)-ureido]-3-chloro-phenoxy}-7-(2-methoxy-ethoxy)-quinolin-6-yl]-acetamide] | 19.6 | 3.92 | 17.9 | 79.1 | 25.6 | 12.9 |
| 49.2 | 62.1 | 39.9 | 0.91 | 9.2 | 1.75 | 9.94 | 34.5 | CN1CCN(CCCOc2cc3nccc(Oc4ccc(NC(=O)Nc5cc(C(C)(C)C)n[nH]5)c(Cl)c4Cl)c3cc2C(N)=O)CC1 [Compound 95] | 20.6 | 2.94 | 32.6 | 128 | 9.76 | 17.6 |
